Some test systems named below: Malme-3M; SF-539; SK-OV-3; CCRF-CEM; UACC-257; M14; RPMI-8226; T47D; A549; OVCAR-8; NCI-H226; SNB-19; HCT-116; SF-295; HOP-92; 786-0; Hs-578T; MDA-MB-231; RXF 393; BT-549.
What all share (experiment): growth of human tumour cells (NCI), 48 h

The values below come from ChEMBL document CHEMBL1201862, “PubChem BioAssay data set” (2004).

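Five compound concentrations were applied to cells in 96-well plates for 48 hours; endpoints were derived by simple linear interpolation of the resulting dose-response curve. GI50 is the concentration that inhibits growth by half.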 Activity calls are given as the source filed them. Cut-off read from the data, not from the text of the source: active = GI50 up to about 1.1 µM and inactive = higher.

`CCOc1cc(/C=N\N(C)C)cc(/C=N\N(C)C)c1O`: the GI50 in the assay on Malme-3M was 32.4 µM (inactive); with SF-539, 20.6 µM (inactive); in the assay with SK-OV-3, 29.4 µM (inactive); with CCRF-CEM, 44.7 µM (inactive); in the assay on UACC-257, 36 µM (inactive); in the assay on M14, 40.2 µM (inactive). Moreover, the GI50 in the assay with RPMI-8226 is 31.6 µM (inactive); in the assay on T47D it was 11.7 µM (inactive); in the assay on A549 it was > 100 µM (inactive); in the assay with OVCAR-8 it was 21.6 µM (inactive); with NCI-H226 it was 38.3 µM (inactive); in the assay with SNB-19, 48.9 µM (inactive). Besides, the GI50 with HCT-116 is 90.6 µM (inactive); in the assay on SF-295, 41.3 µM (inactive); in the assay with HOP-92, 7.66 µM (inactive); in the assay on 786-0 it was 42.7 µM (inactive); in the assay with Hs-578T, 29.7 µM (inactive); in the assay on MDA-MB-231 it was 43.1 µM (inactive).

In the case of `O=C(O)c1cccc(S(=O)(=O)NN2C(=O)CSC2c2c(O)ccc3ccccc23)c1` (stereo unspecified), the GI50 in the assay with Malme-3M is 26.5 µM (inactive); in the assay with SF-539, 22.2 µM (inactive); in the assay on SK-OV-3, 37.7 µM (inactive); in the assay with CCRF-CEM it was 16 µM (inactive); in the assay on UACC-257, 56.4 µM (inactive); in the assay on M14 it was 42.2 µM (inactive). The GI50 with T47D was 22.5 µM (inactive); with A549, 41.5 µM (inactive); in the assay on OVCAR-8, < 0.01 µM (active); with NCI-H226 it was 34.8 µM (inactive); in the assay on SNB-19, 26.4 µM (inactive); in the assay on HCT-116, 19.6 µM (inactive). For the same compound, the GI50 is 29.3 µM (inactive) in the assay on SF-295, 45 µM (inactive) with RXF 393, 39.4 µM (inactive) in the assay on 786-0 and 26.8 µM (inactive) with MDA-MB-231.

Turning to `C[n+]1c(-c2ccccc2)cc2/c(=C\c3ccccc3)c3ccccc3n21`, the GI50 in the assay with Malme-3M is 1.14 µM (inactive); in the assay on SF-539 it was 0.908 µM (active); with SK-OV-3, 4.14 µM (inactive); in the assay with CCRF-CEM it was 0.582 µM (active); with UACC-257, 0.991 µM (active); with M14 it was 1.27 µM (inactive). The GI50 is 3.96 µM (inactive) with A549; 0.361 µM (active) with OVCAR-8; 0.418 µM (active) in the assay on NCI-H226; 0.731 µM (active) with SNB-19; 1.25 µM (inactive) in the assay on HCT-116; 4.93 µM (inactive) in the assay on SF-295. In addition, the GI50 in the assay on RXF 393 was 1.36 µM (inactive); in the assay with HOP-92, 1.69 µM (inactive); in the assay with 786-0, 0.906 µM (active); in the assay on Hs-578T it was 0.116 µM (active); in the assay with MDA-MB-231, 0.661 µM (active).

With `CC(=O)Oc1c(C)cc(-c2cc(C)c(OC(C)=O)c(C)c2)cc1C`, the GI50 in the assay on Malme-3M was 89.3 µM (inactive); in the assay on SK-OV-3, 19.5 µM (inactive); in the assay with CCRF-CEM, 31 µM (inactive); with UACC-257 it was 41.6 µM (inactive); in the assay with M14, 31.1 µM (inactive); in the assay with RPMI-8226 it was > 100 µM (inactive). Further, the GI50 was 42.4 µM (inactive) with A549; 37.1 µM (inactive) in the assay with OVCAR-8; 29.7 µM (inactive) in the assay with NCI-H226; 70.1 µM (inactive) in the assay with SNB-19; 41.1 µM (inactive) in the assay with HCT-116; 23.7 µM (inactive) in the assay on SF-295. The GI50 with HOP-92 is 36.3 µM (inactive); in the assay with 786-0, 36.3 µM (inactive); with Hs-578T it was 15.7 µM (inactive); in the assay on BT-549 it was 10.8 µM (inactive).

For the compound `C[S+]=c1sc2ccccc2s1`, the GI50 in the assay with Malme-3M, with SF-539, in the assay with SK-OV-3, in the assay on CCRF-CEM, in the assay on UACC-257 and in the assay with M14 was > 100 µM (inactive) in each case. Also, the GI50 in the assay with RPMI-8226, with A549, in the assay on OVCAR-8, with NCI-H226, in the assay with SNB-19 and in the assay with HCT-116 was > 100 µM (inactive) each time. The GI50 with SF-295, in the assay with RXF 393, in the assay on HOP-92 and in the assay with 786-0 was > 100 µM (inactive) throughout.

With `N#CC(C#N)=c1ccc(=C2N3CCCC3CN2C23CC4CC(CC(C4)C2)C3)cc1` (stereo unspecified), the GI50 in the assay on Malme-3M, in the assay with SF-539, in the assay on SK-OV-3, in the assay with CCRF-CEM, in the assay with UACC-257 and in the assay with M14 was > 100 µM (inactive) in each case. The GI50 was > 100 µM (inactive) in the assay on RPMI-8226; > 100 µM (inactive) in the assay with A549; > 100 µM (inactive) in the assay with OVCAR-8; > 100 µM (inactive) in the assay with NCI-H226; 84.1 µM (inactive) with SNB-19; > 100 µM (inactive) in the assay with HCT-116. For the same compound, the GI50 in the assay with SF-295, in the assay on RXF 393, in the assay on HOP-92 and in the assay with 786-0 was > 100 µM (inactive) in each case.

In the case of `NC(=O)C(=O)Cc1nc2ccccc2s1`, the GI50 in the assay on Malme-3M, in the assay with SF-539, in the assay on SK-OV-3, in the assay on CCRF-CEM, with UACC-257 and with M14 was > 100 µM (inactive) each time. For the same compound, the GI50 in the assay on RPMI-8226, with A549, with OVCAR-8, with NCI-H226, with SNB-19 and in the assay with HCT-116 was > 100 µM (inactive) in each case. Also, the GI50 in the assay on SF-295, with RXF 393, in the assay with HOP-92 and in the assay on 786-0 was > 100 µM (inactive) each time.

As for `COC(=O)CCC(NC(=S)N/N=C(\C)c1cnccn1)C(=O)OC` (stereo unspecified), the GI50 in the assay with Malme-3M was 54.1 µM (inactive); in the assay on SF-539, 62.5 µM (inactive); in the assay on SK-OV-3, > 100 µM (inactive); in the assay on CCRF-CEM, 16.8 µM (inactive); with UACC-257, 33.8 µM (inactive); in the assay with M14 it was 42.4 µM (inactive). Further, the GI50 was 44.9 µM (inactive) with RPMI-8226; 58.7 µM (inactive) with A549; 38.6 µM (inactive) in the assay on OVCAR-8; 44.5 µM (inactive) with NCI-H226; > 100 µM (inactive) with SNB-19; 33.9 µM (inactive) in the assay on HCT-116. For the same compound, the GI50 was 52.4 µM (inactive) in the assay with SF-295, > 100 µM (inactive) in the assay with RXF 393, > 100 µM (inactive) with HOP-92 and 58.6 µM (inactive) in the assay on 786-0.

With `COc1ccc(CNC(=O)NCn2cc(-c3ccccc3)nn2)cc1`, the GI50 in the assay on Malme-3M, in the assay on SF-539, in the assay with CCRF-CEM, with UACC-257, in the assay on M14 and in the assay with RPMI-8226 was > 100 µM (inactive) each time. Besides, the GI50 in the assay with A549, in the assay on OVCAR-8, in the assay with SNB-19, in the assay on HCT-116, with SF-295 and in the assay with HOP-92 was > 100 µM (inactive) throughout. The GI50 with 786-0, with BT-549 and in the assay on MDA-MB-231 was > 100 µM (inactive) throughout.
